Measurements from a melting point compilation (Tetko et al.; mined from patent text by program, amines drawn as free bases though some values may be those of a salt).

melting point [°C]	SMILES
86 to 87	CCCc1c(OCCCCCOc2ccc3c(=O)cc(C(=O)OC)oc3c2CCC)ccc(C(C)=O)c1O
215 to 217	O=c1[nH]c2ccc(C(F)(F)F)cc2c(-c2cc(Cl)ccc2O)c1NCc1ccccc1
167 to 169	Cc1sc2ncc(C(O)CCCc3ccccc3)n2c1C (stereo unspecified)
110 to 115	CC(=O)O[C@@](Cn1cncn1)(c1ccc(F)cc1F)[C@@H](C)S(=O)(=O)Cl
121 to 124	Clc1nc(Cl)c2ncn(C3CC3)c2n1
129	CC=CC(C)=C1C(=O)OC(=O)C1c1cc(C)n(-c2ccc(C)cc2)c1C (stereo unspecified)
174 to 176	Cc1ccc(N)cc1C(=O)NS(C)(=O)=O
123 to 125	COc1ccc(C(=O)c2c(C)n(C(C)=O)c(=O)n2C(C)=O)cc1
137	CNn1c(N(C)C)nn(C(=O)NC2CCCC2)c1=O
198 to 200	CC(Oc1ncn(-c2cccc(Br)c2)n1)C(=O)O (stereo unspecified)
81 to 82	COc1ccc(C(=O)n2cccc2Br)c(OC)c1
160	O=C(O)CCc1nc(-c2ccccc2)cc2ccccc12
81 to 85	COc1ccc2ccc(S(=O)(=O)Cl)cc2c1
235 to 240	CCOC(=O)Cc1c[nH]c2nc(Nc3ccc(OC(C)C)cc3)nn2c1=O
138 to 140	c1ccc(-c2c[nH]c([C@@H](Cc3c[nH]c4ccccc34)Nc3ncccn3)n2)cc1
38	CCCCCc1ccc(-c2ccc(OCCCC)c(N)c2)cc1
222 to 224	Cc1ccc(N2C(=O)C(O)=C(C(=O)c3ccc(C(C)C)cc3)C2c2ccc(O)cc2)nn1 (stereo unspecified)
140	COc1ccc(C=CC(=O)N2CCN(c3nc(N)c4cc(OC)c(OC)cc4n3)CC2)cc1OC
225 to 227	COc1ccc(C2=NNS(=O)(=O)Cc3cc4nsnc4cc32)cc1
> 210	Nc1nccc(-c2c[nH]c3nccc(OCc4ccccc4)c23)n1
97 to 99	c1ccc(CSCC2CCn3c(nc4ccccc43)S2)cc1 (stereo unspecified)
190 to 191	O=C1CC2CCS(=O)c3ccccc3C2=NN1c1ccc(Cl)cc1 (stereo unspecified)
206 to 207	CS(=O)(=O)c1ccc(-n2nc(C(F)(F)F)cc2-c2ccc(-c3nccs3)cc2)cc1
179 to 184	Cc1cc(Cn2nc(C(F)(F)F)cc2C(F)(F)F)ccc1NC(=O)c1cccc(Cl)c1C(=O)NC(C)(C)C(=O)O

melting point [°C]	SMILES
95 to 96	O=C(CCN1CCCCC1)Nc1cccc([N+](=O)[O-])c1
31 to 32	CSc1nc(F)cc(F)n1
165 to 166	Cc1ccccc1CC(=NC#N)NC(NC(=O)Cc1ccc2cccnc2c1)C(C)(C)C (stereo unspecified)
83.6 to 84.2	COCc1c(Cl)ccc(C(=O)c2cnoc2C2CC2)c1S(C)(=O)=O
205 to 207	N#Cc1cccc2c1NC(=O)C21COc2cc3c(cc21)OCO3 (stereo unspecified)
138 to 140	CC(C)CN(C=Nc1nnnc2c1ncn2C1CC(O)C(CO)O1)CC(C)C (stereo unspecified)
63 to 65	S=C=Nc1c(Br)cccc1Br
118 to 128	CS(=O)(=O)N[C@@H]1CCCC[C@H]1Nc1nc(Nc2ccc3c(c2)CCC(F)(F)CC3)ncc1Cl
> 250	Cc1cc(-c2ccc(C(F)(F)F)cc2)cc(-c2ccnc(-c3cccc(S(N)(=O)=O)c3)c2)n1
120	Nc1cc(Cl)c(Cl)cc1NCCO
145 to 146	CCC(O)c1cc2cc(O)c(Cl)c(Cl)c2s1 (stereo unspecified)
80 to 81	CC=CCn1c(C)c(C)c2cnnc(OCc3cccnc3)c21
142 to 148	CCOC(=O)CCCOc1cccc(-c2n[nH]c3c2Cc2ccccc2-3)c1
158 to 159	CCN1c2ncc(CCc3ccncc3)cc2C(=O)N(C)c2ccc(Cl)nc21
53 to 56	CCCCCCCCCCCCOC(=O)c1cc(C(C)(C)C)c(OC(=O)c2cc(C(C)(C)C)c(O)c(C(C)(C)C)c2)c(C(C)(C)C)c1
208 to 210	O=C1CC(/C=C/c2ccncc2)=Nc2ccccc2N1Cc1ccccc1
144 to 145	CC(=O)c1cccc([C@H]2C[C@H]2NC(=O)Nc2ccc(Cl)cn2)c1 (racemic)
93 to 95	COC(=O)C(O)c1ccc2c(c1)OCO2 (stereo unspecified)
188 to 191	OCc1cc(-c2ccc3nnn(Cc4ccc5ncccc5c4)c3n2)cs1
230 to 232	CCCCN(C(=O)c1cc(C(C)(C)C)c(OC(=O)c2cc(C(C)(C)C)c(O)c(C(C)(C)C)c2)c(C(C)(C)C)c1)C1CC(C)(C)N(OC(C)=O)C(C)(C)C1
59 to 61	O=C(C[C@@H](CCc1ccccc1)C(=O)O)OCC(Cl)(Cl)Cl
142 to 143	COCC1CN(c2ccc(C3CCC(O)CC3)cn2)C(=O)O1 (racemic)
215 to 216	NC1=NS(=O)(=O)Nc2cccc(OC3CCCCC3)c21
72 to 73	O=C(Cc1nnn[nH]1)OCc1ccccc1

melting point [°C]	SMILES
250	O=C(O)CCON=c1c2nccc3cccc(c32)n2cccc12
> 270	O=C(O)c1cnc2c3ccccc3ncn2c1=O
145	Nc1ccccc1C=C1c2ccccc2CCc2ccccc21
91 to 92	CC(C)(C)OC(=O)[C@@H]1CCC(=O)N1
205	CS(=O)(=O)N1CCN(c2ccc(O)cc2)CC1
49 to 51	COC1=C(OC)C(=O)C(CCCCC[C@H]2CC[C@H](O)CC2)=C(C)C1=O
108 to 113	Cc1noc(NS(=O)(=O)c2ccccc2-c2ccc(-c3ncco3)cc2-c2ncco2)c1C
110 to 130	CCC(=O)OC1(C(=O)C(O)OC(=O)C(NC(=O)OC(C)(C)C)C(C)C)CCC2C3CC(C)C4=CC(=O)C=CC4(C)C3C(O)CC21C (stereo unspecified)
128 to 130	CCCn1cc(C(=O)OCC)c(=O)c2cc(F)c(-n3cccc3)cc21
171 to 172	CC(C)(C)c1cc(C(=O)NCc2cccc(N)c2)cc(C(C)(C)C)c1O
215 to 216	CS(=O)(=O)Oc1ccc(-c2c3ccccc3c(C(F)(F)F)c3sc4ccccc4c23)cc1
200 to 201	O=C(N[C@H](Cc1ccccc1C(F)(F)F)[C@@H](O)c1ccc(F)cc1)c1ccc(F)c2ccccc12 (racemic)
179 to 182	CC(C)c1cc(C(C)(C)CCP(=O)(O)O)cc(C(C)C)c1O
163 to 166	CN(C)c1ccc(Nc2ccccc2)cc1
262	COC(=O)C1=C(C)NC(C)=C([N+](=O)[O-])C1c1cccc2ncc(-c3ccccc3)cc12 (stereo unspecified)
213 to 214	Nc1ncnc2c1ncn2CCCN1CCC(NC(=O)c2ccccc2)CC1
81 to 83	CCCCC(C(=O)c1ccc(Cl)cc1)n1cncn1 (stereo unspecified)
162 to 164	O=C(NC[C@H]1CN(c2cc(F)c(N3CCC(n4cnnn4)CC3)c(F)c2)C(=O)O1)C1CC1
212 to 214	COc1ccccc1NC(=S)NC(NC(=O)c1ccc(C)cc1)C(F)(F)F (stereo unspecified)
165 to 167	COc1cc(OC)nc(NC(=O)NS(=O)(=O)N=CN(CSC)OC)n1
79 to 81	COCCNC(=O)c1ccc(Br)c(C)c1
70 to 72	O=C(O)CCCC=C1CCCCCCCCCCC1
41	O=[N+]([O-])c1cc2c(cc1Oc1ccccc1)CCC2
142 to 144	O=C(O)[C@]12CCCC[C@H]1CCc1ccccc12 (relative stereo)

melting point [°C]	SMILES
58 to 60	CCN(CCOc1cccnc1F)CCN1C(=O)c2ccccc2C1=O
136 to 140	CC(C)(C)c1ccn(-c2ccc(C(=O)N3Cc4cccnc4Nc4ccccc43)c(C(F)(F)F)c2)n1
93	FC(F)c1cc(Cl)nc2c1cnn2C1CCCCO1 (stereo unspecified)
192 to 195	CCOC(=O)c1cc(-c2ccccc2)n(-c2ccc(S(N)(=O)=O)cc2)n1
259 to 260	CCn1cc(C(F)(F)F)c(=O)[nH]c1=O
67	Cn1c(C(F)(F)F)nn(-c2cc(NS(C)(=O)=O)c(C#N)cc2F)c1=O
156 to 157	Cc1nc(N2CCN(Cc3ccc(C(=O)N4CCCCC4)cc3)C2=O)sc1-c1ccn[nH]1
115 to 116	NCCCCCNc1cccc2c1C(=O)c1c(NCCCCCN)cccc1C2=O
165 to 168	Cc1ccc2c(c1Cl)C(=O)N(C1(C#N)CCCCC1)C2=O
140 to 142	CCc1cccc2c3c([nH]c12)C(CC)(CC(=O)O)CCC3c1ccccc1 (stereo unspecified)
195 to 196	Cc1cc(S(N)(=O)=O)ccc1NC(=O)CNc1ccccc1
148 to 149	COc1ccc(-c2cc(=O)c3ccc(OCCCBr)cc3o2)cc1OC
183	Cc1cc(-c2cc(C(F)(F)F)n3ncc(-c4ccccn4)c3n2)ccc1Cl
42 to 45	CCOC(=O)CC(=O)Nc1cc(F)cc(F)c1
92	COc1ccc2c(c1)OC(C#N)=CO2
215 to 220	CC(=O)Nc1c(O)cc(C(=O)O)cc1[N+](=O)[O-]
35 to 36	NN=C(c1cccc(F)c1)c1cccc(F)c1
136 to 138	O=C(NCCCc1ccncc1)N(CCC12CC3CC(CC(C3)C1)C2)C1CCCC1
118	CC(=O)CCCN1CC[C@H](CNC(=O)c2cc(Cl)c(N)c3c2OCC3)[C@H](O)C1 (relative stereo)
60 to 65	COC(=O)C(Cl)Cc1cc(F)c(-n2c(=O)cc(C(F)(F)F)n(C)c2=O)cc1[N+](=O)[O-] (stereo unspecified)
122 to 123	CCCOc1nc(C(F)(F)F)cc(=O)n1-c1cc(O)c(Cl)cc1F
113	CC1(C)CC([N+]([O-])=Cc2ccccc2)CC(C)(C)N1
171 to 173	CC(=O)c1ccc(OCCOc2ccc3ccccc3c2)c(F)c1
189 to 190	CC(C)(C)c1cc(CCc2ccccc2NC(=O)NCc2ccccn2)cc(C(C)(C)C)c1O

SMILES	melting point [°C]
CN1C2CCC1CC(=NO)C2	140 to 142
CN1CC(CCN2CC(=O)NC2=O)CC2c3cccc4[nH]cc(c34)CC21 (stereo unspecified)	242 to 244
NCCCP(=O)(O)Cc1ccccc1	69 to 72
CCCCN1CC=C(c2cccc3[nH]ccc23)CC1	91
Cc1nc2sccn2c(=O)c1CCN1CCC2Nc3ccccc3C2C1 (stereo unspecified)	152
